The values that follow come from US10342697B2, “Systems and methods for delivering drugs to an eye” (Avedro, Inc., priority 2016, dated 2019).

Entries after “also recorded” stand apart in the source; their conditions may differ.

The test system of data set [1] is pig eyes with intact epithelium. Description: Relative fluorescence F/Fo of cross-linked corneal flaps, Polidocanol vs BAC riboflavin solutions (Study 4). As to conditions: 20 min soak, 30 mW/cm^2, FIGS. 7-15. How it is done:
The epitheliums of eyes in Group A were removed with a dull blade after the eyes were soaked in one of the solutions and irradiated pan-corneally on air with a top hat beam (3% root mean square) for 4 minutes with 365-nm light source (UV LED NCSU033B[T]; Nichia Co., Tokushima, Japan) at a chosen irradiance of 30 mW/cm^2 which was measured with a power sensor (model PD-300-UV; Ophir, Inc., Jerusalem, Israel) at the corneal surface. Corneal flaps (approximately 200 μm thick) were excised from the eyes with aid of an Intralase femtosecond laser (Abbot Medical Optics, Santa Ana, Calif.). The average thickness of the corneal flaps was calculated as a difference between the measurements before and after the excision from the eyes with an ultrasonic Pachymeter (DGH Technology, Exton, Pa.). The flaps were washed with distilled water and dried in a vacuum until the weight change became less than 10% (Rotary vane vacuum pump RV3 A652-01-903, BOC Edwards, West Sussex, UK). […] Papain digests were diluted 0.5 times with 1×BBBS and fluorescence of the solutions was measured with excitation of 360 nm in a QM-40 Spectrofluorometer (Photon Technology Int., London, Ontario, Canada). The fluorescence of the papain buffer was taken into account by measuring fluorescence in the absence of tissue and subtracting this value from the fluorescence of the samples. […]

The next data set deals with epithelium. Description: Corrosiveness/damage to the epithelium. As to conditions: compared with BAC.

In the case of “Polyoxyethylene (9) lauryl ether [Polidocanol]”, the “enhancing permeability in the epithelium and generating cross-linking activity” value in data set [1] is “more effective than many other surfactants; also recorded: far more effective and efficient than BAC”. The “corrosive and damaging to the epithelium” value in the data set with epithelium is “less corrosive and damaging to the epithelium than BAC”.
